Results: ChEMBL document CHEMBL4477172, “Bougainvinones A-H, Peltogynoids from the Stem Bark of Purple Bougainvillea spectabilis and Their Cytotoxic Activity” (J Nat Prod, 2016)

Tests used:
Format in all cases: functional, cell-based
HT-29 = test: Cytotoxicity against human HT-29 cells after 48 hrs by MTT assay; settings: HT-29, 48 h
HepG2 = test: Cytotoxicity against human HepG2 cells after 48 hrs by MTT assay; settings: HepG2, 48 h
HeLa S3 = test: Cytotoxicity against human HeLaS3 cells after 48 hrs by MTT assay; settings: HeLa S3, 48 h
KB = test: Cytotoxicity against human KB cells after 48 hrs by MTT assay
MCF7 = test: Cytotoxicity against human MCF7 cells after 48 hrs by MTT assay; settings: MCF7, 48 h

COc1ccc2c(c1)COc1c-2oc2c(C)c(O)c(C)c(OC)c2c1=O
IC50 (HT-29): > 10 µM
IC50 (HepG2): > 10 µM
IC50 (HeLa S3): > 10 µM
IC50 (KB): > 10 µM
IC50 (MCF7): > 10 µM

COc1ccc2c(c1)COc1c-2oc2c(C)c(O)c(C)c(O)c2c1=O
IC50 (HT-29): 8.8 µM
IC50 (HepG2): 7.4 µM
IC50 (HeLa S3): 8.4 µM
IC50 (KB): 8.1 µM
IC50 (MCF7): 9.7 µM

COc1c(C)c(O)c(C)c2oc3c(c(=O)c12)OCc1ccccc1-3
IC50 (HT-29): > 10 µM
IC50 (HepG2): > 10 µM
IC50 (HeLa S3): > 10 µM
IC50 (KB): > 10 µM
IC50 (MCF7): > 10 µM

COc1c(C)c(OC)c2c(=O)c3c(oc2c1C)-c1ccccc1CO3
IC50 (HT-29): > 10 µM
IC50 (HepG2): > 10 µM
IC50 (HeLa S3): > 10 µM
IC50 (KB): > 10 µM
IC50 (MCF7): > 10 µM

Cc1c(O)c(C)c2oc3c(c(=O)c2c1O)OCc1ccccc1-3
IC50 (HT-29): > 10 µM
IC50 (HepG2): > 10 µM
IC50 (HeLa S3): > 10 µM
IC50 (KB): > 10 µM
IC50 (MCF7): > 10 µM

COc1c(C)c(OC)c2c(=O)c3c(oc2c1C)-c1c(O)cccc1CO3
IC50 (HT-29): > 10 µM
IC50 (HepG2): > 10 µM
IC50 (HeLa S3): > 10 µM
IC50 (KB): > 10 µM
IC50 (MCF7): > 10 µM

COc1c(C)c(O)c2c(=O)c3c(oc2c1C)-c1c(O)cccc1CO3
IC50 (HT-29): > 10 µM
IC50 (HepG2): > 10 µM
IC50 (HeLa S3): > 10 µM
IC50 (KB): 6.6 µM
IC50 (MCF7): > 10 µM

Cc1c(O)c(C)c2oc3c(c(=O)c2c1O)OCc1cccc(O)c1-3
IC50 (HT-29): > 10 µM
IC50 (HepG2): > 10 µM
IC50 (HeLa S3): > 10 µM
IC50 (KB): 9 µM
IC50 (MCF7): > 10 µM

COc1cccc2c1C(=O)c1c(O)c3c(c(O)c1C2=O)C[C@@](O)(C(=O)CO)C[C@@H]3O[C@H]1C[C@H](N)[C@H](O)[C@H](C)O1 [DOXORUBICIN]
IC50 (HT-29): 0.26 µM
IC50 (HepG2): 1.54 µM
IC50 (KB): 0.09 µM
